Experimental data: ChEMBL document CHEMBL1201862, “PubChem BioAssay data set” (2004)
Active and inactive are the calls of the source.

Experiments:
[1] = inhibitors of firefly luciferase expression or activity, dose response, H4 neuroglioma cells, luminescence (AID 1990); type: functional, cell-based
[2] = Luminescence Cell-Based Dose Response HTS to Identify Inhibitors of 5'UTR Stem-Loop Driven Prion Protein mRNA Translation in H4 Neuroglioblastoma Cells. [Related pubchem assays: 1827 (Project Summary), 1813 (Primary HTS)]; type: functional
[3] = inhibitors of SNCA 5'UTR-driven reporter translation, confirmation, H4 neuroglioma cells, luminescence (AID 1988); type: functional, cell-based
[4] = biological target: Intestinal-type alkaline phosphatase (Homo sapiens, UniProt P09923); assay: human intestinal alkaline phosphatase activators, dose response, biochemical, luminescence, uHTS hits (AID 463120); type: functional
[5] = biological target: T1, E3 ubiquitin-protein ligase XIAP (Homo sapiens, UniProt P98170); assay: Counter Screen using XIAP-Bir3 for Chemical Antagonists of Bir1/2 domains of IAP-family anti-apoptotic proteins. [Related pubchem assays (depositor defined):AID1018, AID1449, AID1514, AID1638, AID1749, AID1750, AID488957, AID488963]
[6] = biological target: T1, E3 ubiquitin-protein ligase XIAP; assay: XIAP antagonists, biochemical, IAP family, fluorescence polarization (AID 1018); type: functional
Integrin alpha-4 = Integrin alpha-4 (Homo sapiens, UniProt P13612); assay: VLA-4 integrin allosteric ligands, SAR follow-up, cell-based, LIBS antibody binding, flow cytometry (AID 488791); type: functional
[7] = biological target: T2, Microphthalmia-associated transcription factor (Homo sapiens, UniProt O75030); assay: TRPM1 promoter luciferase signal decrease, dose response, MITF inhibitor project, cell-based, SK-MEL-5, cherry-picked, set 3 (AID 493073); type: functional
T2 sequence (O75030 whole entry): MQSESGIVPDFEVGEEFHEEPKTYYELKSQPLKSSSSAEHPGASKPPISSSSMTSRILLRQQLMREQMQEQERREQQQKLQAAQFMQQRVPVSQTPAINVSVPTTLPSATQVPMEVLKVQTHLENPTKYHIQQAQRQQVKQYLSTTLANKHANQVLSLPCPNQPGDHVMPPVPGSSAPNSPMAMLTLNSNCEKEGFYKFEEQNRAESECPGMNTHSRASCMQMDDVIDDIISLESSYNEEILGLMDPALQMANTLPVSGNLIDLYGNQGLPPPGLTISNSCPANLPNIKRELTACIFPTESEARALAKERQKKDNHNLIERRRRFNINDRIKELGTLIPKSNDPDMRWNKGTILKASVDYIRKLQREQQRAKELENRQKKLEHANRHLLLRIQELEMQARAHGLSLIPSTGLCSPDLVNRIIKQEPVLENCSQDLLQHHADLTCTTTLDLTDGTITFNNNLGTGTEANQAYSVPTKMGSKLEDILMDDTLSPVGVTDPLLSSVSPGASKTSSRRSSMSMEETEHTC

A-375 [8] = assay: MITF: Counter assay: A375 proliferation Measured in Cell-Based System Using Plate Reader - 2084-03_Inhibitor_Dose_DryPowder_Activity. [Related pubchem assays (depositor defined):AID488944]; type: functional; details: Homo sapiens
Vero = assay: cells; type: functional; details: Chlorocebus sabaeus
A-375 [9] = assay: A375 melanoma cell viability reduction, dose response, counter-screen for MITF modulator project, cherry-pick samples, set 2 (AID 540335); type: functional, cell-based; details: Homo sapiens

T1 sequence (P98170 whole entry): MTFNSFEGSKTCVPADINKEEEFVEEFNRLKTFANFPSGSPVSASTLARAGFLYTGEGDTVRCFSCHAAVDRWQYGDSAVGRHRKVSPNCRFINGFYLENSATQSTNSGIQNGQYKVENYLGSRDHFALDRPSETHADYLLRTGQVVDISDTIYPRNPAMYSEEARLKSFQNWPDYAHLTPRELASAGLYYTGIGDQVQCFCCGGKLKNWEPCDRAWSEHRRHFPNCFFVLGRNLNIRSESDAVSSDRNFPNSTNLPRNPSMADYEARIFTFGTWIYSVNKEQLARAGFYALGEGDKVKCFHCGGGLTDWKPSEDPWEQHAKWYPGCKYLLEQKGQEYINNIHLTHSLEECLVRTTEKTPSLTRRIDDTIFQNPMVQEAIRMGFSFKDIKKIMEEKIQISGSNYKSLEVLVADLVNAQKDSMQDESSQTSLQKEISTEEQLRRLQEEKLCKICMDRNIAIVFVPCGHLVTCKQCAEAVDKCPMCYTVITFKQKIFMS
Chain of Intestinal-type alkaline phosphatase (P09923 whole entry): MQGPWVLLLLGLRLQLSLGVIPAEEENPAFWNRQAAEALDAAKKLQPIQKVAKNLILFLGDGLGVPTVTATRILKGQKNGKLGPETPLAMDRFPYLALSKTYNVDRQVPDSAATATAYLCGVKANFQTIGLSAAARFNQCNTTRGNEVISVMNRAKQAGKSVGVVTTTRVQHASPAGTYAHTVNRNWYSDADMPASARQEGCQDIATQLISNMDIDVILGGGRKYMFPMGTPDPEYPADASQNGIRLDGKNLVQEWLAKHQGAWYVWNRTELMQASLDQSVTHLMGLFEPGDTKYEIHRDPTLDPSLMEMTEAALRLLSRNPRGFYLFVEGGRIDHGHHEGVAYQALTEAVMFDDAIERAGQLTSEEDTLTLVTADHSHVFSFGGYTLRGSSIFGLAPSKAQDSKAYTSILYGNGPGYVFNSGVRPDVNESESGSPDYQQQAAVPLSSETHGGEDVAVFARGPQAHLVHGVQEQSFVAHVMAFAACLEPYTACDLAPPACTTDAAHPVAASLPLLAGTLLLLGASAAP
Chain of Integrin alpha-4 (P13612 whole entry): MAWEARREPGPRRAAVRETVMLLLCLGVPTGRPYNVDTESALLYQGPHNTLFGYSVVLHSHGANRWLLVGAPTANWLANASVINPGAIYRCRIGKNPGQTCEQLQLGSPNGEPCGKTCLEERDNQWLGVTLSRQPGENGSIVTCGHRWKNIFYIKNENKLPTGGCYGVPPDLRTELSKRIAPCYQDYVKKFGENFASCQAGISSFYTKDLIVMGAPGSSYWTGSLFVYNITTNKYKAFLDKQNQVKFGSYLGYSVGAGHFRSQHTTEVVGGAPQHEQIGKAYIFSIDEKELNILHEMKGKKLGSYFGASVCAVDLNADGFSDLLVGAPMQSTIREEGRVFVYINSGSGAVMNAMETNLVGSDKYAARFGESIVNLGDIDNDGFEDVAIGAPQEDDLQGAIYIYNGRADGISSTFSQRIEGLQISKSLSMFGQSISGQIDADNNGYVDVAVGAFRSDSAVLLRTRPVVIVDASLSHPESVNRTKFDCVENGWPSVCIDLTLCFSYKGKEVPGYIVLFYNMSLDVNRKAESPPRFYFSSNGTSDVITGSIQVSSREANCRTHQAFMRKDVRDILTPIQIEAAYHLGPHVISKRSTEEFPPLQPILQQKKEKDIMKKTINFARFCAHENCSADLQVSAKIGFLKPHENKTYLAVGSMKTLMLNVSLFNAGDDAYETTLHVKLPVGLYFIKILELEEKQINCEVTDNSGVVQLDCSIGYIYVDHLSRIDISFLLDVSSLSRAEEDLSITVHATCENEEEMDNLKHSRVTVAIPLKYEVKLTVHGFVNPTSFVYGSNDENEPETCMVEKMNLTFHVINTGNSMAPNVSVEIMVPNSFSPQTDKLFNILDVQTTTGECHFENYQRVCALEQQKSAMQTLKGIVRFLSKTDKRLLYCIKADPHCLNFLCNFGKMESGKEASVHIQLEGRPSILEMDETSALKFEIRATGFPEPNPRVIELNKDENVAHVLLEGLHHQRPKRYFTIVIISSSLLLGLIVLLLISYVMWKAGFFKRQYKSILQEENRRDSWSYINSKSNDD

In the case of N#CCN1C(=S)N=C(Nc2cccc(Cl)c2)C12CCCCC2, the EC50 [1] is reported as > 120 µM (not active), the EC50 [2] is reported as > 120 µM (not active) and the EC50 [3] is reported as > 120 µM (not active). The EC50 [4] was > 100 µM (inactive).

With CCOC(=O)C1(CCCc2ccccc2)CCN(C(=O)C2=C(C)OCCO2)CC1 the IC50 [5] was > 100 µM (inactive) and the IC50 [6] was > 100 µM (not active).

In the case of CCOCCCNC(=O)/C(C#N)=C/c1ccc(Cl)c([N+](=O)[O-])c1, the EC50 (Integrin alpha-4) is reported as > 90.8 µM (inactive), the AC50 [7] is reported as 7.38 µM (active) and the AC50 (A-375 [8]) is reported as > 35 µM (active). The CC50 (Vero) was > 25 µM (active) and the AC50 (A-375 [9]) was > 35 µM (active).
